Results on 10 compounds are retold here after US20240166602A1, “SUBSTITUTED DIARYL COMPOUND AS WELL AS PREPARATION METHOD AND APPLICATION THEREOF” (SHANDONG FIRST MEDICAL UNIV & SHANDONG ACADEMY OF MEDICAL …, priority 2021, published 2024).

Entries after “also recorded” stand apart in the source; their conditions may differ. Where two headings read alike, the source gives them in different places.

Type in all cases: cell-based
For assay [1], the system named is human lung cancer (A549) cells. In words: MTT tumor cell growth inhibition, human lung cancer (A549). The settings on record: A549, 48 h culture, MTT method, read-out: IC50 value of target compound against cancer cell proliferation, A549. The procedure: (§1) Dissolve CHJ compound series with dimethyl sultbxide (DMSO, final concentration 0.4%), and use RPMI-1640 culture medium containing 15% fetal calf serum to prepare 1 mg/mL solution for future use. During drug administration in groups, use the culture medium to dilute it to the concentration needed.
(§2) Cell lines: human lung cancer (A549), Inman ovarian cancer (SKOV3), human melanoma (A375) and human colon cancer (LOVO) cell lines, all purchased from the Cell Bank of the Chinese Academy of Sciences, DMEM containing 15% fetal bovine serum (High Glucose) culture medium, placed in a 37° C., 5% CO2 incubator.
(§3) MTT is an oxidizing yellow dye with the chemical name of 3-(4,5-dimethyl-2-thiazolyl)-2,5-diphenyl-2-H-tetrazoliumbromide tetrazole bromide. The MMT method, also known as the MTT colorimetric method, can test the survival and growth of cells. The method is simple and easily accessible and often used to screet the substance with cytotoxic activity. The basic principle of testing, is that succinodehydrogenase can reduce exogenous MIT so that MTT is reduced to blueviolet crystal Formazan insoluble to water. The crystal deposits in cells. The succinodehydrogenase exists in the mitochondria of living cells, not in the dead cells. Therefore, the chromogenic reaction can only take place in living cells. Then, dissolve the blueviolet crystal Formazan contained in cells with dimethyl sulfoxide (DMSO), and measure its absorbancy with microplate reader so that the count of living cells is reflected indirectly. Within the scope of certain cell count, the amount of blueviolet crystal Formazan formed is positively correlated to the count of living cells.
(§4) Human lung cancer (A549), human ovarian cancer (SKOV3), human melanoma (A375) and human colon cancer (LOVO) ceilsare all adherent. Based on the growth rate of tumor cells, wash the adherent tumor cells in the logarithmic phase and digest them in 0.25% EDTA pancreatic enzyme. Adjust the cell count to 1×10^5/mL and inoculate the cells in 96-pore plate, each pore containing 100 μL. Culture the cells in the 37° C. CO2 incubator, and administer the drug 24 h later. Add pharmaceutical (CJH compound series) of different concentrations to the administration group. Set up 5 dosage groups for each pharmaceutical, respectively 100, 10, 1, 0.1, 0.01 μmol/L. Set up three complex pores for each concentration. Set up blank control, DMSO (0.8%) solvent control and cis-platinum positive control. After 48 h of culture in the 37 ° C. incubator containing 5% CO2, measure the OD value through MTT method and calculate the cell inhibition ratio.
(§5) After 48 h of culture of human lung cancer (A549), human ovarian cancer (SKOV3). human melanoma (A375) and human colon cancer (LOVO) cells, stop it and add 10 μL 0.5% MTT solution to each pore. Place it in the CO2 incubator for 4 h. Remove the liquid from each pore, respectively add 0.2 mL DMSO solution, and oscillate it adequately on the table concentrator under low frequency so that the blueviolet crystal Formazan is dissolved adequately. Place it in the microplate reader and record the OD value at the wavelength of […]. Calculate the average OD value of three parallel pores of different concentrations, and calculate the cell inhibition ratio and IC50 of each tested pharmaceutical under different concentrations based on the average.
(§6) Inhibition ratio (%)=[1-tested sample OD/negative control group OD]×100%.
A general note: Tetrazolium assays rely on reduction of a dye to a coloured formazan, in cell work by metabolically active cells.

For assay [2], the system named is human ovarian cancer (SKOV3) cells. In words: MTT tumor cell growth inhibition, human ovarian cancer (SKOV3). The conditions noted are these: SKOV3, 48 h culture, MTT method, read-out: IC50 value of target compound against cancer cell proliferation, SKOV3. The procedure: as §1, §2, §3, §4, §5, §6
Assay [3] relates to human melanoma (A375) cells. In words: MTT tumor cell growth inhibition, human melanoma (A375). The settings on record: A375, 48 h culture, MTT method, read-out: IC50 value of target compound against cancer cell proliferation, A375. How it is done: as §1, §2, §3, §4, §5, §6
In assay [4] the test system is human colon cancer (LOVO) cells. In words: MTT tumor cell growth inhibition, human colon cancer (LOVO). The settings on record: 48 h culture, MTT method, read-out: IC50 value of target compound against cancer cell proliferation, LOVO. The procedure:
as §1, §2, §3, §4, §5, §6

Assay [5] has as its system human lung cancer (A549), human ovarian cancer (SKOV3), human melanoma (A375) and human colon cancer (LOVO) cells. In words: MTT tumor cell growth inhibition, overall comment on the four cell lines. The settings on record: summary of the IC50 data over A549, SKOV3, A375, LOVO. How it is done: as §1, §2, §3
as §4, with “After 48 h of culture in the 37 ° C. incubator containing 5% CO2, measure the OD value through MTT method and calculate the cell inhibition ratio.” left out
After 48 h of culture of human lung cancer (A549), human ovarian cancer (SKOV3). human melanoma (A375) and human colon cancer (LOVO) cells, stop it and add 10 μL 0.5% MTT solution to each pore. […] Place it in the microplate reader and record the OD value at the wavelength of […]. […]

As to `CCCc1ccc(OCC(O)CN(C)Cc2ccc(OCCN3CCC(C)CC3)c(OC)c2)c(OC)c1` (stereo not shown) [CHJ03011, 1-((3-methoxy-4-(2-(4-methylpiperidin-1-yl)ethoxy)benzyl)(methyl)amino)-3-(2-methoxy-4-propylphenoxy)propan-2-ol], the IC50 is 10.56 ± 0.02 µM in assay [1] (Homo sapiens); 21.2 ± 1.08 µM in assay [2] (Homo sapiens, SK-OV-3); 1.82 ± 1.23 µM in assay [3] (Homo sapiens, A-375); 15.2 ± 1.78 µM in assay [4] (Homo sapiens). Further, the “anti-cancer activity, in words” value in assay [5] is “still effective against cancer”.
As for `COc1cc(CN(C)CC(O)COc2c(Br)cc(Br)cc2Br)ccc1OCCN1CCC(C)CC1` (stereo not shown) [CHJ04022, 1-((3-methoxy-4-(2-(4-methylpiperidin-1-yl)ethoxy)benzyl)(methy)amino)-3-(2,4,6-tribromnophenoxy)propan-2-ol], the IC50 in assay [1] (Homo sapiens) stood at 1.88 ± 0.19 µM; in assay [2] (Homo sapiens, SK-OV-3) it was 1.03 ± 0.24 µM; in assay [3] (Homo sapiens, A-375), 0.05 ± 0.01 µM; in assay [4] (Homo sapiens) it was 0.69 ± 0.03 µM. In assay [5], the “anti-cancer activity, in words” value was “the most active, as active as the cis-platinum in the control group”.
In the case of `COc1cc(CN(C)CC(O)COc2ccc(NC(C)=O)cc2)ccc1OCCN1CCC(C)CC1` (stereo not shown) [CHJ04061, N-(4-2-hydroxy 3-((3-methoxy-4-(2-(4-methylpiperidin-1-yl)ethoxy)benzyl)(methyl)amino)propoxy)phenypacetamide], the IC50 worked out at 333.1 ± 2.7 µM in assay [1] (Homo sapiens); 143 ± 3.1 µM in assay [2] (Homo sapiens, SK-OV-3); 97.1 ± 4.21 µM in assay [4] (Homo sapiens). In assay [5], the “anti-cancer activity, in words” value is on record as “lowered prominently”.
Turning to `COc1cc(CN(C)CC(O)COc2c(Br)cc(Br)cc2Br)ccc1OCCN1CCCC1` (stereo not shown) [CHJ04068, 1-((3-methoxy-4-(2-(pyrrolidin-1-yl)ethoxy)henzyl)(methyl)amino)-3-(2,4,6-tribromophenoxy)propan-2-ol], the IC50 amounted to 5.46 ± 1.76 µM in assay [1] (Homo sapiens); 4.21 ± 1.23 µM in assay [2] (Homo sapiens, SK-OV-3); 1.54 ± 1.34 µM in assay [3] (Homo sapiens, A-375); 0.52 ± 0.4 µM in assay [4] (Homo sapiens). The “anti-cancer activity, in words” value in assay [5] is reported as “lowered prominently; also recorded: the most active, as active as the cis-platinum in the control group”.
Consider `COc1cc(CN(C)CC(O)COc2ccc(Br)c(C(F)(F)F)c2)ccc1OCCn1ccnc1` (stereo not shown) [CHJ04097, 1-((4-(2-(1H-imidazol-1-yl)ethoxy)-3-methoxybenzyl)(methyl)amino)-3-(4-bromo-3-(trifluoromethyl)phenoxy)propari-ol], for which the IC50 in assay [1] (Homo sapiens) came to 24.4 ± 2.78 µM; in assay [2] (Homo sapiens, SK-OV-3), 33.6 ± 2.47 µM; in assay [3] (Homo sapiens, A-375), 14.8 ± 2.77 µM; in assay [4] (Homo sapiens), 32.1 ± 3.39 µM.
The corresponding values for `COc1cc(CN(C)CC(O)COc2cc(C(F)(F)F)ccc2Br)ccc1OCCn1ccnc1` (stereo not shown) [CHJ04099, 1-((4-(2-(1H-imidazol-1yl)ethoxy)-3-methoxybenzyl)(methyl)amino)-3-(2-bromo-5-(trifluoromethyl)phenoxy)propan-2-ol] are 23.1 ± 2.58 µM, 37.4 ± 2.48 µM, 16.2 ± 2.11 µM and 38.2 ± 2.94 µM.
The corresponding values for `COc1cc(CN(C)CC(O)COc2ccc(Br)cc2)ccc1OCCn1ccnc1` (stereo not shown) [CHJ05001] are 30.7 ± 3.12 µM, 40.1 ± 3.02 µM, 15.8 ± 1.73 µM and 49.1 ± 2.71 µM.
The corresponding values for `COc1cc(CN(C)CC(O)COc2ccc(C)c(Br)c2)ccc1OCCn1ccnc1` (stereo not shown) [CHJ05003, 1-((4-(2-(1H-imidazol-1-yl)ethoxy)03-methoxybenzyl)(methyl)amino)-3-(3-bromo-4-methylphenoxy)propan-2-ol] are 34 ± 2.11 µM, 35.1 ± 1.35 µM, 24.9 ± 1.93 µM and 52.5 ± 1.22 µM.
Turning to `CCOc1ccccc1OCC(O)CN(C)Cc1ccc(OCCN2CCC(C)CC2)c(OC)c1` (stereo not shown) [SAMS10], the IC50 in assay [1] (Homo sapiens) turned out to be 14.64 ± 0.06 µM; in assay [2] (Homo sapiens, SK-OV-3), 21.07 ± 0.18 µM; in assay [3] (Homo sapiens, A-375) it was 27.1 ± 0.66 µM; in assay [4] (Homo sapiens), 8.48 ± 0.07 µM.
For the compound `N.N.[Cl][Pt][Cl]` [cisplatin, reference compound], the IC50 in assay [1] amounted to 4.21 ± 1.31 µM; in assay [2], 1.91 ± 0.43 µM; in assay [3], 5.91 ± 1.64 µM; in assay [4], 2.64 ± 1.12 µM.
